US7632829B2, “Diazepan derivatives” (Hoffmann-La Roche Inc., priority 2006, dated 2009)

Molecular target: T1, human chemokine receptor 2 isoform B (Homo sapiens, UniProt P41597)
T1 construct: host or cells: CHOK1-CCR2B-A5 (CHO-K1)
T1 sequence (P41597 1-360 isoform P41597-2): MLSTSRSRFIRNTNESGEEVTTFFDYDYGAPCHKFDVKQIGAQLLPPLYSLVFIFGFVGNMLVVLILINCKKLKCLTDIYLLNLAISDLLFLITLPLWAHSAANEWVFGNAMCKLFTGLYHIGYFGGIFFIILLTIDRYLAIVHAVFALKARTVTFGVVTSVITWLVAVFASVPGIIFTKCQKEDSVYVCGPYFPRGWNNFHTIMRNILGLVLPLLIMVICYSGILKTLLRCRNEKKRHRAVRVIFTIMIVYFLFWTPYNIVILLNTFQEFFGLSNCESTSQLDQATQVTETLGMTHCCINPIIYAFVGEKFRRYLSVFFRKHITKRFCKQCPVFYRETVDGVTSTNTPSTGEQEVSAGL
Assay: Calcium mobilization assay (FLIPR, CHOK1-CCR2B-A5 cells, 20 nM MCP-1)
Assay type: cell-based
Settings: Ca mobilisation assay, CCR2, antagonist activity vs 20 nM MCP-1
Method in brief: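 Antagonism read as IC50 against 20 nM MCP-1-evoked calcium rise (peak minus baseline Fluo-4 signal, FLIPR) in CCR2B-overexpressing CHO-K1 cells. Compounds were preincubated 20-30 min at 30 °C, with agonist activity recorded for 80 s on addition.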

Compound	IC50
O=C(/C=C/c1ccc(Cl)c(Cl)c1)N1CCC(=O)N(CCNC2CCCC2)CC1 [Example 108, 4-[3-(Cyclopentyl-amino)-ethyl]-1-[(E)-3-(3,4-dichloro-phenyl)-acryloyl]-[1,4]diazepan-5-one]	1200 nM
(rac)-1-[(E)-3-(3,4-Dichloro-phenyl)-acryloyl]-4-[2-hydroxy-3-(2-hydroxy-2-hydroxymethyl-piperidin-1-yl)-propyl]-[1,4]diazepan-5-one [Example 307]	437 nM
(rac)-N-[1-(4-{4-[(E)-3-(3,4-Dichloro-phenyl)-acryloyl]-7-oxo-[1,4]diazepan-1-yl}-butyl)-piperidin-3-yl]-acetamide [Example 463]	348 nM
4-[3-(4-Methyl-4-hydroxy-piperidin-1-yl)-propyl]-1-[(E)-3-(3,4-dichloro-phenyl)-acryloyl]-[1,4]diazepan-5-one [Example 76]	219 nM
O=C(/C=C/c1ccc(Cl)c(Cl)c1)N1CCC(=O)N(CCC(O)CN2CCC(CO)CC2)CC1 (racemic) [Example 379]	1500 nM
CC1CCCCN1CCN1CCN(C(=O)C=Cc2ccc(Cl)c(Cl)c2)CCC1=O (racemic) [Example 102, (+/−)-1-[(E)-3-(3,4-Dichloro-phenyl)-acryloyl]-4-[3-(2-methyl-piperidin-1-yl)-ethyl]-[1,4]diazepan-5-one]	1020 nM
COC[C@H]1CCN(CCCN2CCN(C(=O)/C=C/c3ccc(F)c(Cl)c3)CCC2=O)C[C@H]1O (racemic) [Example 216]	726 nM
CN(C)C1CCN(CCCN2CCN(C(=O)/C=C/c3ccc(Cl)c(Cl)c3)CCC2=O)C1 (racemic) [Example 277, (rac)-1-[(E)-3-(3,4-Dichloro-phenyl)-acryloyl]-4-[3-(3-dimethylamino-pyrollidin-1-yl)-propyl]-[1,4]diazepan-5-one]	1290 nM
CC(C)N1CCN(CCCN2CCN(C(=O)/C=C/c3ccc(Cl)c(Cl)c3)CCC2=O)CC1C (racemic) [Example 246, (rac)-1-[(E)-3-(3,4-Dichloro-phenyl)-acryloyl]-4-[3-(4-isopropyl-3-methyl-piperazin-1-yl)-propyl]-[1,4]diazepan-5-one]	421 nM
O=C(O)C(CCCN1CCCCC1)N1CCN(C(=O)/C=C/c2ccc(Cl)c(Cl)c2)CCC1=O (racemic) [Example 180, Lithium; (rac)-2-{4-[(E)-3-(3,4-dichloro-phenyl)-acryloyl]-7-oxo-[1,4]diazepan-1-yl}-5-piperidin-1-yl-pentanoate]	319 nM
CN(CCN1CCN(C(=O)/C=C/c2ccc(Cl)c(Cl)c2)CCC1=O)C1CCCC1 [Example 109, 4-[-3-(Cyclopentyl-methyl-amino)-ethyl]-1-[(E)-3-(3,4-dichloro-phenyl)-acryloyl]-[1,4]diazepan-5-one]	521 nM
COCC1CCCN(CCCN2CCN(C(=O)/C=C/c3ccc(Cl)c(Cl)c3)CCC2=O)C1 (racemic) [Example 236]	565 nM
O=C1NCC2(CCN(CCCN3CCN(C(=O)/C=C/c4ccc(F)c(Cl)c4)CCC3=O)CC2)O1 [Example 195]	453 nM
O=C1CC2(CCN(CCCN3CCN(C(=O)/C=C/c4ccc(Cl)c(Cl)c4)CCC3=O)CC2)CN1 [Example 88, 8-(3-{4-[(E)-3-(3,4-Dichloro-phenyl)-acryloyl]-7-oxo-[1,4]diazepan-1-yl}-propyl)-2,8-diaza-spiro[4.5]decan-3-one]	757 nM
1-[(E)-3-(3,4-Dichloro-phenyl)-acryloyl]-4-[3-(4-methyl-piperazin-1-yl)-propyl]-[1,4]diazepan-5-one [Example 75]	267 nM
C[C@@H]1CCN(CC(O)CN2CCN(C(=O)/C=C/c3ccc(Cl)c(Cl)c3)CCC2=O)C[C@H]1O (mixture of isomers) [Example 315, (rac)-1-[(E)-3-(3,4-Dichloro-phenyl)-acryloyl]-4-[2-hydroxy-3-(trans-3-hydroxy-4-methyl-piperidin-1-yl)-propyl]-[1,4]diazepan-5-one]	717 nM
O=C(/C=C/c1ccc(Cl)c(Cl)c1)N1CCC(=O)N(CCCCN2CC[C@@H](O)[C@@H](F)C2)CC1 (racemic) [Example 430, (rac,cis)-1-[(E)-3-(3,4-Dichloro-phenyl)-acryloyl]-4-[4-(3-fluoro-4-hydroxy-piperidin-1-yl)-butyl]-[1,4]diazepan-5-one]	352 nM
O=C(/C=C/c1cccc(Cl)c1)N1CCC(=O)N(CCN2CCC(c3ccc(F)cc3)CC2)CC1 [Example 33, 1-[(E)-3-(3-Chloro-phenyl)-acryloyl]-4-[3-(4-(4-fluoro-phenyl)-piperidin-1-yl)-ethyl]-[1,4]diazepan-5-one]	343 nM
O=C(/C=C/c1ccc(Cl)c(Cl)c1)N1CCC(=O)N(CC(O)CN2CCC3(CCCO3)CC2)CC1 (racemic) [Example 326]	999 nM

The remaining compounds from weak to strong by IC50, led by results:

IC50	Compound
301 nM	O=C(/C=C/c1ccc(Cl)c(Cl)c1)N1CCC(=O)N(C[C@@H](O)CN2CC[C@@H](CO)[C@H](O)C2)CC1 (mixture of isomers) [Example 333, 1-[(E)-3-(3,4-Dichloro-phenyl)-acryloyl]-4-[(S)-2-hydroxy-3-(trans-3-hydroxy-4-hydroxymethyl-piperidin-1-yl)-propyl]-[1,4]diazepan-5-one]
259 nM	O=C(/C=C/c1ccc(Cl)c(Cl)c1)N1CCC(=O)N(CCCCN2CCCCC2CO)CC1 (racemic) [Example 427, (rac)-1-[(E)-3-(3,4-Dichloro-phenyl)-acryloy]-4-[4-(2-hydroxymethyl-piperidin-1-yl)-butyl]-[1,4]diazepan-5-one]
250 nM	O=C(/C=C/c1ccc(Cl)c(F)c1)N1CCC(=O)N(CCCCN2CCC[C@H](O)[C@@H]2CO)CC1 (racemic) [Example 419]
175 nM	O=C(/C=C/c1ccc(Cl)c(Cl)c1)N1CCC(=O)N(CCCN2CCC(F)CC2)CC1 [Example 74, 1-[(E)-3-(3,4-Dichloro-phenyl)-acryloyl]-4-[3-(4-fluoro-piperidin-1-yl)-propyl]-[1,4]diazepan-5-one]
154 nM	O=C(/C=C/c1ccc(Cl)c(Cl)c1)N1CCC(=O)N(CCCN2CCC(CO)CC2)CC1 [Example 229]
140 nM	O=C(C=Cc1ccc(Cl)c(Cl)c1)N1CCC(=O)N(CCCCN2CCC(O)C(F)C2)CC1 (mixture of isomers) [Example 434, (rac,trans)-1-[(E)-3-(3,4-Dichloro-phenyl)-acryloyl]-4-[4-(3-fluoro-4-hydroxy-piperidin-1-yl)-butyl]-[1,4]diazepan-5-one]
133 nM	CC1CN(CCCN2CCN(C(=O)/C=C/c3ccc(Cl)c(Cl)c3)CCC2=O)CCC1O (racemic) [Example 243]
106 nM	C[C@@H]1CN(CCCCN2CCN(C(=O)/C=C/c3ccc(Cl)c(Cl)c3)CCC2=O)CC[C@H]1O (racemic) [Example 455, (rac)-1-[(E)-3-(3,4-Dichloro-phenyl)-acryloyl]-4-[4-(trans-4-hydroxy-3-methyl-piperidin-1-yl)-butyl]-[1,4]diazepan-5-one]
96 nM	O=C(/C=C/c1ccc(F)c(Cl)c1)N1CCC(=O)N(C[C@@H](O)CN2CCCCC2)CC1 [Example 175, 1-[(E)-3-(3-Chloro-4-fluoro-phenyl)-acryloyl]-4-((S)-2-hydroxy-3-piperidin-1-yl-propyl)-[1,4]diazepan-5-one]
77 nM	CC1CCC(O)CN1CCCCN1CCN(C(=O)/C=C/c2ccc(Cl)c(F)c2)CCC1=O (racemic) [Example 413]
73 nM	CC1(CO)CCCCN1CC(O)CCN1CCN(C(=O)/C=C/c2ccc(Cl)c(Cl)c2)CCC1=O (racemic) [Example 363]
54 nM	COCC1CCCN(CCCCN2CCN(C(=O)/C=C/c3ccc(F)c(Cl)c3)CCC2=O)C1 (racemic) [Example 392]
51 nM	C[C@@H]1C[C@H](O)CN(C[C@H](O)CCN2CCN(C(=O)/C=C/c3ccc(Cl)c(Cl)c3)CCC2=O)C1 [Example 503]
28 nM	O=C(/C=C/c1ccc(Cl)c(Cl)c1)N1CCC(=O)N(C[C@@H](O)CN2CCCCC2)CC1 [Example 167, 1-[(E)-3-(3,4-Dichloro-phenyl)-acryloyl]-4-((S)-2-hydroxy-3-piperidin-1-yl-propyl)-[1,4]diazepan-5-one]
11 nM	O=C(/C=C/c1ccc(Cl)cc1)N1CCC(=O)N(CCCN2CCC3(CC3)C(O)C2)CC1 (stereo not shown) [Example 498]
11 nM	CC1(C)CCN(C[C@H](O)CN2CCN(C(=O)/C=C/c3ccc(F)c(Cl)c3)CCC2=O)CC1O (stereo partly drawn) [Example 343, 1-[(E)-3-(3-Chloro-4-fluoro-phenyl)-acryloyl]-4-[(S)-2-hydroxy-3-(3-hydroxy-4,4-dimethyl-piperidin-1-yl)-propyl]-[1,4]diazepan-5-one]
10 nM	C[C@]1(CO)CCN(CCCN2CCN(C(=O)/C=C/c3ccc(Cl)c(Cl)c3)CCC2=O)C[C@H]1O (racemic) [Example 270, (rac,cis)-1-[(E)-3-(3,4-Dichloro-phenyl)-acryloyl]-4-[3-(3-hydroxy-4-hydroxymethyl-4-methyl-piperidin-1-yl)-propyl]-[1,4]diazepan-5-one]
8 nM	O=C(/C=C/c1ccc(F)c(Cl)c1)N1CCC(=O)N(CCCN2CCC3(CC3)C(O)C2)CC1 (stereo not drawn) [Example 189, 1-[(E)-3-(3-Chloro-4-fluoro-phenyl)-acryloyl]-4-[3-((-)-4-hydroxy-6-aza-spiro[2.5]oct-6-yl)-propyl]-[1,4]diazepan-5-one]
